This note sets out measurements from patent publication US20260297070A1, “CYCLIC [COMPOUND LEFT OUT] WRN INHIBITORS” (Nimbus Wadjet, Inc., priority 2023, published 2026).

The assay addresses T1, human Werner helicase (WRN-BV08, Uniprot Q14191, amino acids 517-1235 with L1074F point mutation) (Homo sapiens, UniProt Q14191, L1074F).
T1 construct: Uniprot Q14191, amino acids 517-1235 with L1074F point mutation; TEV-cleavable 8×His (C, cleaved yes); made in house; host or cells: Sf9 insect cells (baculovirus)
The assay is described as follows: WRN (BV08) ADP-Glo Assay. The following applies: 0.15 nM WRN, 5 μM ATP, 0.1 nM DNA duplex, 15 min preincubation, 60 min at 25° C., pH 7.5, 1% DMSO; read-out: ADP-Glo_hWRN_IC50. The assay is classed as biochemical. In short, it runs like this: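 WRN 0.15 nM + cpd, 15 min 25 °C; add 5 μM ATP / 0.1 nM annealed DNA duplex; 60 min 25 °C; ADP-Glo stop, RLU. Buffer 20 mM Bicine pH 7.5, 1 mM MgCl2, 10 mM KCl, 1 mM TCEP. IC50, 4-parameter fit.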

Molecules are shown by their SMILES. pIC50: −log10 of the molar value.

T1 sequence (Q14191 with tags, fused parts or gaps L1074F limits assumed): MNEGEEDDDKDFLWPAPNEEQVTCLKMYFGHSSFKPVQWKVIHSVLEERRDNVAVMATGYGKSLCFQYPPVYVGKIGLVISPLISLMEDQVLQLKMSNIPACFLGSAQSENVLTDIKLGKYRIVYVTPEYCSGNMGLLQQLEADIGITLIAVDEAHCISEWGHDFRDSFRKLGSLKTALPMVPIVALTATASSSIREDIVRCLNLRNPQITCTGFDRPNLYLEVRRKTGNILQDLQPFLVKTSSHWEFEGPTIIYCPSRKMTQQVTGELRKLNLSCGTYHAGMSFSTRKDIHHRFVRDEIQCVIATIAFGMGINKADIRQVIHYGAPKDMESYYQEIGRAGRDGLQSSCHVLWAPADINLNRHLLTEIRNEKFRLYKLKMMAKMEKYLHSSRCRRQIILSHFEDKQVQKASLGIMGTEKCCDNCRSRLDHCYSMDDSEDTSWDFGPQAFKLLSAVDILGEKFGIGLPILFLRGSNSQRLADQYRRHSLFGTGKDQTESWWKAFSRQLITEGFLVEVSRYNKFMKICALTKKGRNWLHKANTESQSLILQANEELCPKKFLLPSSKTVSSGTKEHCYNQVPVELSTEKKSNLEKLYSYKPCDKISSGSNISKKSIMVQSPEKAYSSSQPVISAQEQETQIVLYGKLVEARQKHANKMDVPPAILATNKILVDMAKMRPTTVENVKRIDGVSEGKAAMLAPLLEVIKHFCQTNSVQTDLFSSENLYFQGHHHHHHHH

Regarding `CC(C)(O)c1cc(CN(C(=O)C(OCC(F)F)c2ccc(-c3ccc(F)c(F)c3)cc2F)[C@@H]2C=CS(=O)(=O)C2)ccn1` (single isomer, unassigned) [I-813], the pIC50 is above 6.30.

Consider `O=C(Cc1cccc(C2CC2)c1)N(Cc1ccncc1)C1C=CS(=O)(=O)C1` (centres unmarked) [I-437, 2-(3-cyclopropylphenyl)-N-(1,1-dioxo-2,3-dihydro-1lambda6-thiophen-3-yl)-N-[(pyridin-4-yl)methyl]acetamide], for which the pIC50 was below 4.30. As for `CNC(=O)CC(C(=O)N(Cc1ccnc(OC)c1)C1C=CS(=O)(=O)C1)c1ccc(-c2ccc(F)cc2)cc1` (centres unmarked) [I-574, N-(1,1-dioxo-2,3-dihydro-1lambda6-thiophen-3-yl)-2-{4′-fluoro-[1,1′-biphenyl]-4-yl}-N-[(2-methoxypyridin-4-yl)methyl]-N′-methylbutanediamide], the pIC50 is below 4.30.

Take `O=C(Cc1ccc(-c2ccc(F)cc2F)cc1)N(Cc1ccncc1)C1C=CS(=O)(=O)C1` (centres unmarked) [I-203, 2-{2′,4′-difluoro-[1,1′-biphenyl]-4-yl}-N-(1,1-dioxo-2,3-dihydro-1lambda6-thiophen-3-yl)-N-[(pyridin-4-yl)methyl]acetamide]: the pIC50 was 5.30 to 6.30. Next, `O=C(Cc1ccn(-c2ccccc2)n1)N(Cc1ccncc1)C1C=CS(=O)(=O)C1` (centres unmarked) [I-390, N-(1,1-dioxo-2,3-dihydro-1lambda6-thiophen-3-yl)-2-(1-phenyl-1H-pyrazol-3-yl)-N-[(pyridin-4-yl)methyl]acetamide]: below 4.30. For `COc1cc(CN(C(=O)C(OCCS(C)(=O)=O)c2ccc(-c3ccc(F)c(F)c3)cc2F)[C@@H]2C=CS(=O)(=O)C2)ccn1` (single isomer, unassigned) [I-710, (2R*)-N-[(3R)-1,1-dioxo-2,3-dihydro-1lambda6-thiophen-3-yl]-2-(2-methanesulfonylethoxy)-N-[(2-methoxypyridin-4-yl)methyl]-2-{3,3′,4′-trifluoro-[1,1′-biphenyl]-4-yl}acetamide], the pIC50 is below 4.30.

Turning to `CC(C)(O)c1cc(CN(C(=O)Cn2cc(-c3ccc(F)c(F)c3)cn2)[C@@H]2C=CS(=O)(=O)C2)ccn1` [I-6, (R)-2-(4-(3,4-difluorophenyl)-1H-pyrazol-1-yl)-N-(1,1-dioxido-2,3-dihydrothiophen-3-yl)-N-((2-(2-hydroxypropan-2-yl)pyridin-4-yl)methyl)acetamide], the pIC50 is above 6.30. Next, `COc1cc(CN(C(=O)C(C(=O)N(C)C)c2ccc(-c3ccc(F)c(F)c3)cc2F)C2C=CS(=O)(=O)C2)ccn1` (centres unmarked) [I-37, N′-(1,1-dioxo-2,3-dihydro-1lambda6-thiophen-3-yl)-N′-[(2-methoxypyridin-4-yl)methyl]-N,N-dimethyl-2-{3,3′,4′-trifluoro-[1,1′-biphenyl]-4-yl}propanediamide]: above 6.30. For `COc1cc(CN(C(=O)Cc2ccc(C3CC3)cc2)C2C=CS(=O)(=O)C2)ccn1` (centres unmarked) [I-162, 2-(4-cyclopropylphenyl)-N-(1,1-dioxo-2,3-dihydro-1lambda6-thiophen-3-yl)-N-[(2-methoxypyridin-4-yl)methyl]acetamide] the value was 5.30 to 6.30; for `COc1cc(CN(C(=O)C(OC2COC2)c2ccc(-c3ccc(F)c(F)c3)cc2F)[C@@H]2C=CS(=O)(=O)C2)ccn1` (stereo partly drawn) [I-752, N-[(3R)-1,1-dioxo-2,3-dihydro-1lambda6-thiophen-3-yl]-N-[(2-methoxypyridin-4-yl)methyl]-2-(oxetan-3-yloxy)-2-{3,3′,4′-trifluoro-[1,1′-biphenyl]-4-yl}acetamide], 5.00 to 5.30. Next, `COc1cc(CN(C(=O)C(c2ccc(-c3ccc(F)c(F)c3)cc2F)n2nccc2C)[C@@H]2C=CS(=O)(=O)C2)ccn1` (single isomer, unassigned) [I-738, (2R*)-N-[(3R)-1,1-dioxo-2,3-dihydro-1lambda6-thiophen-3-yl]-N-[(2-methoxypyridin-4-yl)methyl]-2-(5-methyl-1H-pyrazol-1-yl)-2-{3,3′,4′-trifluoro-[1,1′-biphenyl]-4-yl}acetamide]: below 4.30.
